Data reported in patent US20260325443A1, “OLFACTORY DELIVERY OF THERAPEUTIC PSYCHEDELICS” (Rocket Science Health Corp., priority 2023, published 2026).
Several values for one entry are separate records, joined by “and”; a condition that tells them apart may be missing. Equal entries are not always repeated. Structures can show the parent of a compound that is named as a salt.

Assays:
[1] = Plasma and tissue concentrations of ketamine via olfactory delivery compared to intravenous administration in rats (LC/MS/MS); type: in vivo, male Sprague Dawley rats; conditions: 5 mg/kg; for concentration at 5 min / concentration at 0.25 h / concentration at 0.5 h / concentration at 1 h / concentration at 1.5 h / concentration at 2 h / concentration at 200 min: rat, plasma; for concentration at 0.25 h: 15 min; for concentration at 0.5 h: 30 min; for concentration at 1 h: 60 min; for concentration at 1.5 h: 90 min; for concentration at 2 h: 120 min
Procedure: Drug Administration and Sample Collection: Intravenous (IV) administration was conducted by 100 μL tail vein injection. Olfactory delivery (OD) administration was conducted by a. 0.699 mm diameter cannula inserted into the right nostril with a minimal angle of 20-degrees to the target of the correct meatus.
Time course experiment and tissue concentration: 12 male Sprague Dawley rats (Age M+/−SD, Weight: 176.27-188.03 g) were administered Ketamine-HCl via IV or OD administration (resulting in two experimental groups, each with n=6). Ketamine-HCl was formulated according to the following procedures: For Ketamine-HCL 5 mg/kg OD: 24.64 mg Ketamine-HCL was added to 0.426 ml of saline, mixed well, and dissolved, with a solution concentration of 50 mg/ml. For Ketamine-HCL 5 mg/kg IV: 0.20 ml of 50 mg/ml Ketamine-HCL solution, was added to 0.60 ml of saline and mixed well to achieve a solution concentration of 12.5 mg/ml. Plasma time courses for 200 minutes were generated. Concentration of compound in brain, olfactory bulb, and plasma at t=200 minutes was quantified using LC/MS/MS.

[2] = Visualizing olfactory cleft delivery with methylene blue (nasal endoscope imaging); type: in vivo, human; conditions: for Olfactory Residence Time: 0.1 mL, individual participants 2.01-2.05, at least 50% of fluid at olfactory cleft
Procedure: Participants: Five healthy participants (ages 19+) with no history of sinonasal symptoms and no evidence of nasal inflammation were recruited for this study. Prior to recruitment of participants study procedures were approved by Providence Health Care research ethics board, (British Columbia, Canada) and conducted under Health Canada Investigational Testing Authorization #314993. All participants were assessed by a licensed otolaryngologist physician to confirm their eligibility. Participants completed two study visits during which a licensed otolaryngologist physician administered 0.1 mL of the visual dye tracer, methylene blue.
Study Design: During the first visit, the methylene blue was administered using the Laminar Fluid Ejection method (1.5 mm cannula; velocity=4.5 m/s). During the second visit, methylene blue was administered using a conventional nasal spray device (Pharma systems Item #10272, UPC: 063636802714). The Pharma systems spray device was used in these experiments because it was the device normally used by the compounding pharmacy for intranasal delivery. It was the device patients and clinicians were used to at this clinic.
Following delivery, the physician used a nasal endoscope to image the deposition of methylene blue to the olfactory cleft at up to five time points (1, 5, 8, 12, and 15 minutes following delivery). From each image, the physician judged whether at least 50% of the methylene blue fluid was delivered to the olfactory cleft. If <50% of the methylene blue was judged to have deposited in the olfactory cleft, imaging was stopped and that session's trial was completed.

[3] = Effect of administration routes (OD, IN, IV) on plasma, brain and olfactory bulb drug concentrations in rats (LCMS); conditions: 15 min after administration, 5.0 mg/kg
Procedure: The goal of this example was to compare nasal cannula delivery (OD) with the traditional IV and IN administration routes.
Procedure: The three routes of administration were tested on rats. A compound formulation of ketamine (5.0 mg/kg), naloxone (0.5 mg/kg), diazepam (2.0 mg/kg), and ondansetron (1.0 mg/kg) was administer. 15 minutes after the drug was administered, rats were sacrificed and samples were taken from plasma, the olfactory bulb, and the brain. To assess each route of administration's efficacy, drug concentrations in each tissue were quantified using liquid chromatography-mass spectrometry (LCMS).

Work on `CNC1(c2ccccc2Cl)CCCCC1=O` (centres unmarked) [Ketamine-HCl] yielded a concentration at 5 min ([1]; IV) of 1710 ng/mL, a concentration at 0.25 h ([1]; IV) of 686 ng/mL and a concentration at 0.5 h ([1]; IV) of 330 ng/mL. The concentration at 1 h ([1]; IV) was 150 ng/mL, the concentration at 1.5 h ([1]; IV) was 65.8 ng/mL and the concentration at 2 h ([1]; IV) was 27.1 ng/mL. It also gave a concentration at 200 min ([1]; IV) of 2.53 ng/mL, a concentration at 5 min ([1]; OD) of 7600 ng/mL and a concentration at 0.25 h ([1]; OD) of 7250 ng/mL. For the same compound, the concentration at 0.5 h ([1]; OD) was 2630 ng/mL, the concentration at 1 h ([1]; OD) was 383 ng/mL and the concentration at 1.5 h ([1]; OD) was 149 ng/mL. The concentration at 2 h ([1]; OD) was 63 ng/mL and the concentration at 200 min ([1]; OD) was 5.3 ng/mL.

With `CN(C)c1ccc2nc3ccc(=[N+](C)C)cc-3sc2c1` [Methylene Blue] the “Olfactory Residence Time” value ([2]; LFE Method (1.5 mm cannula; velocity=4.5 m/s)) was 8 min and 5 min and 0 min and 1 min and 15 min, the “participants with successful delivery of >50% of the methylene blue to the olfactory cleft” value ([2]; Laminar Fluid Ejection method) was “Four of the five participants” and the “Olfactory Residence Time” value ([2]; conventional nasal spray) was 0 min. The “delivery of at least 50% of the dye to the olfactory cleft” value ([2]; conventional nasal spray, each of the five participants) was “failed to deliver at least 50% of the dye”.

For `CNC1(c2ccccc2Cl)CCCCC1=O` (centres unmarked) [ketamine], the “plasma concentration, OD vs IV” value [1] was “higher plasma concentration of ketamine can be achieved with OD than IV” and the “delivery to brain tissue, targeted to olfactory cleft (OD) vs traditional intranasal” value [3] was “improved delivery to brain tissue compared to traditional intranasal sprays”.
